Entries after “also recorded” stand apart in the source; their conditions may differ.
What was measured:
[1] = test system: L5 interneurons in cortical slices from Tsc1+/− mice; assay: Ex vivo whole-cell patch-clamp recordings in cortical slices from Tsc1+/− mice; format: cell-based, mouse
Experimental: Wild type and Tsc1^+/− mice (P14-P16) were anaesthetized with ether and killed by decapitation in agreement with the European Directive 86/609/EEC requirements. The brain was rapidly removed and placed in an oxygenated ice-cold saline buffer. Transverse 300 μm-thick coronal slices were cut using a vibratome (Leica VT1000S; Leica Microsystems Inc., Deerfield, Ill.) in ice-cold protecting solution oxygenated with 95% O2 and 5% of CO2. Prior to recording, slices were incubated in an artificial cerebrospinal fluid (ACSF) solution containing (in mM): 125 NaCl, 3.5 KCl, 1 CaCl2, 2 MgCl2, 1.25 NaH2PO4, 26 NaHCO3, and 10 glucose, equilibrated at pH 7.3 with 95% O2 and 5% CO2 at room temperature (22-25° C.) for at least 1 h to allow recovery.
Slices were transferred to the recording chamber and perfused with oxygenated recording ACSF at 3 ml/min. Neurons were visualized using infrared differential interference contrast (IR-DIC) microscopy. […] It was not compensated and was monitored during each experiment. […]
Wild type and Tsc1^+/− mice (P14-P16) were anaesthetized, their brains removed rapidly and placed in an oxygenated ice-cold saline buffer. […] The effects of AppCH2ppA administration were monitored post slice administration ex vivo. […]

[2] = test system: Tsc1+/− mice; assay: In vivo intracortical EEG recordings of spontaneous seizures in Tsc1+/− mice (mouse model of Tuberous Sclerosis); settings: i.p. injection
Experimental: This study followed the Institut National de la Santé et de la Recherche Médicale guidelines for animal care. All experiments were performed on postnatal days P9-P20 of inbred C57Bl6 strain of both sexes of Tsc1^mut/wt (Tsc1^+/−) mice issued from breeding of C57Bl6 Tsc1^wt females and Tsc1^mut/wt males Tsc1^mut/wt.
Surgery was performed under isoflurane anesthesia. In brief, the skull of the animal was cleaned of skin and periosteum. The skull was covered by glue and dental cement except for a 4-9 mm^2 window above the somatosensory cortex from one or two hemispheres. Two plastic bars were fixed to the nasal and occipital bones of the pups head by dental cement. After surgery, animals were warmed, and left for an hour for recovery from anesthesia. During recordings, the head was fixed to the frame of the stereotaxic apparatus by attached bars; animals were surrounded by a cotton nest and heated via a thermal pad (36.6° C.-37.7° C.). […]
Electroencephalography (EEG) recordings were performed in non-anesthetized head-restrained Tsc1^+/− and control Tsc1^wt mice. […] Recordings were analyzed off-line using Clampfit and MATLAB software. […] During EEG recordings animals were monitored visually to determine behavioral correlates of each electrographic epileptic discharge. […] Local field potentials were analyzed by the custom-written, MATLAB based programs. […]

[3] = test system: CA1 pyramidal neurons in hippocampal slices; assay: Ex vivo murine hippocampal slice model of epilepsy (picrotoxin, Mg2+-free); format: cell-based, mouse; settings: epileptic conditions: picrotoxin 100 μM, Mg2+ free perfusion solution; dose response
Experimental: Slices were prepared and used as described previously (Melnik S, Wright M, Tanner J A, Tsintsadze T, Tsintsadze V, Miller A D, Lozovaya N (2006) Diadenosine polyphosphate analog controls postsynaptic excitation in CA3-CA1 synapses via a nitric oxide-dependent mechanism. J Pharmacol Exp Ther 318 (2):579-588. doi:10.1124/jpet.105.097642).
Slices were prepared as described previously (Melnik S, Wright M, Tanner J A, Tsintsadze T, Tsintsadze V, Miller A D, Lozovaya N (2006) Diadenosine polyphosphate analog controls postsynaptic excitation in CA3-CA1 synapses via a nitric oxide-dependent mechanism. J Pharmacol Exp Ther 318 (2):579-588. doi:10.1124/jpet.105.097642). Addition of picrotoxin (100 μM) and removal of Mg^2+ in the perfusion solution induced spontaneous epileptiform events lasted for 5-10 s (FIG. 7). […] In the continued presence of picrotoxin and Mg^2+ free extracellular solution, bursting at this rate continued for at least 2 h. The effects of AppCH2ppA administration were monitored post slice administration ex vivo (FIGS. 8 and 9a).

Structure (SMILES) | spontaneous glutamatergic activity from L5 interneurons ([1]; bath administration, 10 μM, Vh=−70 mV, cortical slices from Tsc1+/− mice) | seizure like electrical impulses on individual cortical neurons ([1]; ex vivo, cortical slices, P14-P16 mice) | anti-epileptic effect (spontaneous seizure activity) ([2]; 30 μM in 200 μl (6 nmol; 300 nmol/kg or 0.25 mg/kg), Tsc1+/− mice) | anti-epileptic effect (spontaneous seizure activity) ([2]; 100 μM in 200 μl (20 nmol; 1000 nmol/kg or 0.84 mg/kg), Tsc1+/− mice P14-P16) | antiepileptic effect on frequency of epileptiform discharges [3]
Nc1ncnc2c1ncn2[C@@H]1O[C@H](COP(=O)(O)OP(=O)(O)CP(=O)(O)OP(=O)(O)OC[C@H]2O[C@@H](n3cnc4c(N)ncnc43)C(O)C2O)C(O)C1O (some centres unmarked) [AppCH2ppA] | desensitizes glutamatergic activity relative to control | inhibits seizure like electrical impulses | partial | eliminates seizures virtually completely; also recorded: essentially complete anti-epileptic effect | –
Nc1ncnc2c1ncn2[C@@H]1O[C@H](COP(=O)(O)OP(=O)(O)NP(=O)(O)OP(=O)(O)OC[C@H]2O[C@@H](n3cnc4c(N)ncnc43)[C@H](O)[C@@H]2O)[C@@H](O)[C@H]1O [AppNHppA] | – | – | – | – | completely inactive
